{
  "source": "patent US20230183818A1",
  "about": "“ANTIBIOTIC SUSCEPTIBILITY OF MICROORGANISMS AND RELATED MARKERS, COMPOSITIONS, METHODS AND SYSTEMS” (priority 2018, published 2023)",
  "data": [
    {"test_system": "Neisseria gonorrhoeae", "settings": "resistant isolates, all time points (0-15 min)", "procedure": "Cultures were diluted (5X) into HFB. Each isolate culture was split into “treated” and “control” tubes.\nDuring incubation, samples were collected for RNA sequencing at 5, 10, and 15 min (300 µL aliquot of sample was mixed into 600 µL of Qiagen RNA Protect Reagent (Qiagen, Hilden, Germany) for immediate RNA stabilization).\nRNA was extracted using the Enzymatic Lysis of Bacteria protocol of the Qiagen RNeasy Mini Kit and processed according to the manufacturer’s protocol. DNA digestion was performed during extraction using the Qiagen RNase-Free DNase Set.\nThe quality of extracted RNA was measured using an Agilent 2200 TapeStation (Agilent, Santa Clara, CA, USA). Extracted RNA samples were prepared for sequencing using the NEBNext Ultra RNA Library Prep Kit for Illumina (New England Biolabs, Ipswitch, MA, USA) and the NEBNExt Multiplex Oligos for Illumina. […] Raw reads from the sequenced libraries were subjected to quality control to filter out low-quality reads and trim the adaptor sequences using Trimmomatic (version 0.35).\nThe reads were aligned to the FA 1090 strain of N. gonorrhoeae (NCBI Reference Sequence: NC_002946.2) using Bowtie2 (version 2.2.5) and quantified using the Subread package (version 1.5.0-p1). A pseudocount of 1 was added to the gene quantification; gene expression was defined in transcripts per million (TPM). […]", "values": [
      {"compound": "O=C(O)c1cn(C2CC2)c2cc(N3CCNCC3)c(F)cc2c1=O", "note": "[Ciprofloxacin, ciprofloxacin]", "transcriptional response in resistant isolates": "did not significantly respond"}
    ]},
    {"test_system": "Neisseria gonorrhoeae", "settings": "susceptible isolates, 15 min exposure", "values": [
      {"compound": "O=C(O)c1cn(C2CC2)c2cc(N3CCNCC3)c(F)cc2c1=O", "note": "[Ciprofloxacin, ciprofloxacin]", "expression response of the six candidate markers (porB, rpmB, tig, yebC, pilB, cysK)": "downregulation"}
    ]},
    {"test_system": "Neisseria gonorrhoeae", "settings": "Neisseria gonorrhoeae; cited from earlier work", "units": {"resistant MIC breakpoint": "microgram/mL", "susceptible MIC breakpoint": "microgram/mL"}, "values": [
      {"compound": "O=C(O)c1cn(C2CC2)c2cc(N3CCNCC3)c(F)cc2c1=O", "note": "[Ciprofloxacin, ciprofloxacin]", "resistant MIC breakpoint": 1.00, "susceptible MIC breakpoint": 0.06}
    ]},
    {"test_system": "Neisseria gonorrhoeae", "settings": "cited from earlier work", "units": {"MIC Breakpoint, I (intermediate)": "µg/mL", "MIC Breakpoint, R (resistant)": "µg/mL", "MIC Breakpoint, S (susceptible)": "µg/mL"}, "values": [
      {"compound": "O=C(O)c1cn(C2CC2)c2cc(N3CCNCC3)c(F)cc2c1=O", "note": "[Ciprofloxacin, ciprofloxacin]", "MIC Breakpoint, I (intermediate)": "0.12 to 0.5", "MIC Breakpoint, R (resistant)": "≥1", "MIC Breakpoint, S (susceptible)": "≤ 0.06"},
      {"compound": "CO/N=C(\\C(=O)N[C@@H]1C(=O)N2C(C(=O)O)=CCS[C@H]12)c1csc(N)n1", "note": "[Ceftizoxime]", "MIC Breakpoint, S (susceptible)": "≤ 0.5"},
      {"compound": "CCn1cc(C(=O)O)c(=O)c2cc(F)c(N3CCNCC3)nc21", "note": "[Enoxacin]", "MIC Breakpoint, I (intermediate)": 1, "MIC Breakpoint, R (resistant)": "≥2", "MIC Breakpoint, S (susceptible)": "≤ 0.5"},
      {"compound": "CO/N=C(\\C(=O)N[C@@H]1C(=O)N2C(C(=O)O)=C(C)CS[C@H]12)c1csc(N)n1", "note": "[Cefetamet]", "MIC Breakpoint, S (susceptible)": "≤ 0.5"},
      {"compound": "CO/N=C(\\C(=O)N[C@@H]1C(=O)N2C(C(=O)O)=C(CSc3nc(=O)c(=O)[nH]n3C)CS[C@H]12)c1csc(N)n1", "note": "[Ceftriaxone]", "MIC Breakpoint, S (susceptible)": "≤ 0.25"},
      {"compound": "CCn1cc(C(=O)O)c(=O)c2cc(F)c(N3CCNC(C)C3)c(F)c21", "note": "(stereo not shown) [Lomefloxacin]", "MIC Breakpoint, I (intermediate)": "0.25 to 1", "MIC Breakpoint, R (resistant)": "≥2", "MIC Breakpoint, S (susceptible)": "≤ 0.12"},
      {"compound": "CN1CCN(c2c(F)cc3c(=O)c(C(=O)O)cn(CCF)c3c2F)CC1", "note": "[Fleroxacin]", "MIC Breakpoint, I (intermediate)": 0.5, "MIC Breakpoint, R (resistant)": "≥1", "MIC Breakpoint, S (susceptible)": "≤ 0.25"},
      {"compound": "CC(C)(O/N=C(\\C(=O)N[C@@H]1C(=O)N2C(C(=O)[O-])=C(C[n+]3ccccc3)CS[C@H]12)c1csc(N)n1)C(=O)O", "note": "[Ceftazidime]", "MIC Breakpoint, S (susceptible)": "≤ 0.5"},
      {"compound": "CO[C@@]1(NC(=O)CSCC#N)C(=O)N2C(C(=O)O)=C(CSc3nnnn3C)CS[C@@H]21", "note": "[Cefmetazole]", "MIC Breakpoint, I (intermediate)": 4, "MIC Breakpoint, R (resistant)": "≥8", "MIC Breakpoint, S (susceptible)": "≤2"},
      {"compound": "CO/N=C(\\C(=O)N[C@@H]1C(=O)N2C(C(=O)O)=C(COC(N)=O)CS[C@H]12)c1ccco1", "note": "[Cefuroxime]", "MIC Breakpoint, I (intermediate)": 2, "MIC Breakpoint, R (resistant)": "≥4", "MIC Breakpoint, S (susceptible)": "≤1"},
      {"compound": "CO/N=C(\\C(=O)N[C@@H]1C(=O)N2C(C(=O)[O-])=C(C[N+]3(C)CCCC3)CS[C@H]12)c1csc(N)n1", "note": "[Cefepime]", "MIC Breakpoint, S (susceptible)": "≤ 0.5"},
      {"compound": "CN[C@@H]1[C@H](O)[C@H](NC)[C@H]2O[C@@]3(O)C(=O)C[C@@H](C)O[C@H]3O[C@@H]2[C@H]1O", "note": "[Spectinomycin]", "MIC Breakpoint, I (intermediate)": 64, "MIC Breakpoint, R (resistant)": "≥ 128", "MIC Breakpoint, S (susceptible)": "≤ 32"},
      {"compound": "Penicillin", "MIC Breakpoint, I (intermediate)": "0.12 to 1", "MIC Breakpoint, R (resistant)": "≥2", "MIC Breakpoint, S (susceptible)": "≤ 0.06"},
      {"compound": "CO/N=C(\\C(=O)N[C@@H]1C(=O)N2C(C(=O)O)=C(COC(C)=O)CS[C@H]12)c1csc(N)n1", "note": "[Cefotaxime]", "MIC Breakpoint, S (susceptible)": "≤ 0.5"},
      {"compound": "CO[C@@]1(NC(=O)Cc2cccs2)C(=O)N2C(C(=O)O)=C(COC(N)=O)CS[C@@H]21", "note": "[Cefoxitin]", "MIC Breakpoint, I (intermediate)": 4, "MIC Breakpoint, R (resistant)": "≥8", "MIC Breakpoint, S (susceptible)": "≤2"}
    ]}
  ]
}
